According to PMC8842277, “Highly Antiproliferative Latonduine and Indolo[2,3-c]quinoline Derivatives: Complex Formation with Copper(II) Markedly Changes the Kinase Inhibitory Profile” (Journal of Medicinal Chemistry, 2022):

Experiments:
Colo320 cells = test: Apoptosis assay, Annexin-V-FITC/PI flow cytometry; details: 3 h induction
Method: An apoptosis assay was performed by flow cytometry via the analysis of multidrug-resistant Colo320 cells stained with Annexin-V-FITC and propidium iodide (PI).
Colo320 cells were treated at the indicated concentration of the compounds. The dual parametric dot plots combining Annexin-V (FL1) and PI (FL3) fluorescence show the viable cell population in the lower left quadrant Annexin-V–/PI– (Q4), the early apoptotic cells in the lower right quadrant Annexin-V+/PI– (Q3), and the late apoptotic and necrotic cells in the upper right quadrant Annexin-V+/PI+ (Q2).
The assay was carried out for selected compounds using an Annexin V-FITC Apoptosis Detection Kit (cat. no. APOAF-50TST) from Sigma according to the manufacturer’s instructions. The concentration of the Colo320 cell suspension was adjusted to approximately 0.5 × 10^6 cells/mL in an RPMI 1640 medium, and the cell suspension was distributed in 1 mL of aliquots into a 24-well plate and then incubated overnight at 37 °C and 5% CO2. On the following day, the medium was removed and replaced by 1 mL of RPMI medium containing the compounds except the control samples. […] After the incubation period, the samples were washed with PBS and fresh RPMI 1640 medium was added to the samples. The cells were incubated overnight at 37 °C and 5% CO2. The next day, 200 μL of 0.25% Trypsin (Trypsin-Versen) was added to the samples until cells appeared detached followed by the addition of 400 μL of RPMI 1640 medium supplemented with 10% bovine serum. The cells were collected in Eppendorf tubes and centrifuged at 2000g for 2 min. The harvested cells were resuspended in fresh serum-free RPMI 1640 culture medium. After this step, the apoptosis assay was carried out according to the instructions of the manufacturer. The fluorescence was analyzed immediately using a ParTec CyFlow flow cytometer (Partec GmbH, Münster, Germany).
• Apoptosis and DNA binding studies […]

[1] = tested on: normal human embryonal lung fibroblast cells (MRC-5); test: MTT antiproliferative assay; format: cell-based; details: 72 h, read-out: IC50 MRC-5 benign, mean
Method: (§1) The in vitro antiproliferative activity of the compounds was tested in doxorubicin-sensitive Colo205 and multidrug-resistant Colo320 human colon adenocarcinoma cell lines as well as in normal human embryonal lung fibroblast cells (MRC-5) by MTT assay.
(§2) Human colonic adenocarcinoma cell lines Colo 205 doxorubicin-sensitive (ATCC-CCL-222) and Colo 320/MDR-LRP multidrug resistant over-expressing ABCB1 (MDR1)-LRP (ATCC-CCL-220.1) were purchased from LGC Promochem, Teddington, UK. The cells were cultured in an RPMI 1640 medium supplemented with 10% heat-inactivated fetal bovine serum, 2 mM L-glutamine, 1 mM Na-pyruvate, and 10 mM HEPES. The semi-adherent human colon cancer cells were detached with Trypsin-Versene (EDTA) solution for 5 min at 37 °C. An MRC-5 human embryonal lung fibroblast cell line (ATCC CCL-171) was purchased from LGC Promochem, Teddington, UK. The cells were cultured in Eagle’s minimal essential medium (EMEM, containing 4.5 g L^–1 glucose) supplemented with a non-essential amino acid mixture, a selection of vitamins, and 10% heat-inactivated fetal bovine serum. The HCT-116 colon carcinoma cells and isogenic p53-knock-out subline were a gift of Prof. Bert Vogelstein from The Johns Hopkins Oncology Center. Cells were cultured in McCoy’s 5A medium supplemented with 10% heat-inactivated fetal bovine serum and 4 mM L-glutamine. All cell lines were incubated at 37 °C, in a 5% CO2, 95% air atmosphere.
(§3) MRC-5 non-cancerous human embryonic lung fibroblast and human colonic adeno-carcinoma cell lines (doxorubicin-sensitive Colo 205 and multidrug resistant Colo 320 colonic adenocarcinoma cells) were used to determine the effect of compounds on cell growth. The effects of increasing concentrations of compounds on cell growth were tested in 96-well flat-bottomed microtiter plates. The compounds were dissolved in DMSO and stock solutions of 10 mM were prepared. These were further diluted in the appropriate cell culture medium by twofold serial dilution starting from 100 or 10 μM for the compounds. The adherent human embryonal lung fibroblast cells were cultured in 96-well flat-bottomed microtiter plates using EMEM supplemented with 10% heat-inactivated fetal bovine serum. The density of the cells was adjusted to 1 × 10^4 cells in 100 μL per well, the cells were seeded for 24 h at 37 °C, 5% CO2, then the medium was removed from the plates containing the cells, and the dilutions of compounds previously made in a separate plate were added to the cells in 200 μL. In the case of the colonic adenocarcinoma cells, the twofold serial dilutions of compounds were prepared in 100 μL of RPMI 1640, horizontally. The semi-adherent colonic adenocarcinoma cells were treated with Trypsin-Versene (EDTA) solution. They were adjusted to a density of 1 × 10^4 cells in 100 μL of RPMI 1640 medium and were added to each well, with the exception of the medium control wells. The final volume of the wells containing compounds and cells was 200 μL. The culture plates were incubated at 37 °C for 72 h; at the end of the incubation period, 20 μL of MTT (thiazolyl blue tetrazolium bromide, Sigma) solution (from a stock solution of 5 mg mL^–1) was added to each well. After incubation at 37 °C for 4 h, 100 μL of sodium dodecyl sulfate (SDS) (Sigma) solution (10% in 0.01 M HCI) was added to each well and the plates were further incubated at 37 °C overnight. Cell growth was determined by measuring the optical density (OD) at 540/630 nm with a Multiscan EX ELISA reader (Thermo Labsystems, Cheshire, WA, USA). […] Curves were fitted by GraphPad Prism software[57] using the sigmoidal dose–response model (comparing variable and fixed slopes). The IC50 values were obtained from at least three independent experiments. Tests in adherent HCT-116 colon carcinoma cells and an isogenic p53-knock-out subline thereof were performed in a similar manner, with 1.5 × 10^3 cells seeded in 100 μL of McCoy’s 5A medium (Sigma-Aldrich) per well. […]

[2] = tested on: doxorubicin-sensitive Colo205 human colon adenocarcinoma cells; test: MTT antiproliferative assay; format: cell-based; details: for selectivity factor (SF) Colo205: IC50 MRC-5/IC50 Colo205; for IC50: MTT, 72 h
Method: as §1, §2, §3

[3] = tested on: multidrug-resistant Colo320 human colon adenocarcinoma cells; test: MTT antiproliferative assay; format: cell-based; details: for selectivity factor (SF) Colo320: IC50 MRC-5/IC50 Colo320; for IC50: MTT, 72 h
Method: as §1, §2, §3

[4] = Stability in diluted blood serum by UV–vis; format: in vitro ADME, human; details: pH 7.40, diluted with HEPES or PBS
Method: Measurements with diluted serum show a more elaborate picture. […] The new band cannot be undoubtedly attributed to the liberation of ligand HL^8.
Aqueous stability of 4, 8, and HL^4 was investigated in phosphate-buffered saline (PBS) and 10 mM HEPES buffers and in three-times diluted blood serum (Sigma Aldrich, from human male AB plasma) at pH = 7.40. The concentration of the compounds was between 5 and 10 μM. Blood serum was filtered on a 1.25 μm polyethersulfone membrane syringe filter and diluted with 10 mM HEPES or PBS buffer.

Structure (SMILES): CC(=NNc1nc2ccccc2c2c1[nH]c1ccc(Br)cc12)c1ccc(CN2CCOCC2)cn1.[Cl][Cu][Cl] [compound 8, CuCl2(HL^8)·H2O]
- Cell death % Q1 (Colo320 cells; 0.5 µM): 4.52%
- Early apoptosis % Q3 (Colo320 cells; 0.5 µM): 6.01%
- Late apoptosis and necrosis % Q2 (Colo320 cells; 0.5 µM): 12.1%
- Cell death % Q1 (Colo320 cells; 2 µM): 1.76%
- Early apoptosis % Q3 (Colo320 cells; 2 µM): 6.91%
- Late apoptosis and necrosis % Q2 (Colo320 cells; 2 µM): 6.97%
- IC50 [1]: 165 nM
- selectivity factor (SF) Colo205 [2]: 4.38
- IC50 [2]: 38 nM
- selectivity factor (SF) Colo320 [3]: 0.30
- IC50 [3]: 547 nM
- Behaviour in blood serum diluted by factor 3 [4]: partial decomposition of the complex

Structure (SMILES): CC(=NNC1=NCc2ccccc2-c2c1[nH]c1ccc(Br)cc21)c1ccc(CN2CCOCC2)cn1.[Cl][Cu][Cl] [compound 4, CuCl2(HL^4)·0.5H2O]
- Cell death % Q1 (Colo320 cells; 0.25 µM): 5.10%
- Early apoptosis % Q3 (Colo320 cells; 0.25 µM): 7.48%
- Late apoptosis and necrosis % Q2 (Colo320 cells; 0.25 µM): 12.7%
- Cell death % Q1 (Colo320 cells; 0.5 µM): 4.76%
- Early apoptosis % Q3 (Colo320 cells; 0.5 µM): 5.18%
- Late apoptosis and necrosis % Q2 (Colo320 cells; 0.5 µM): 11.6%
- IC50 [1]: 397 nM
- selectivity factor (SF) Colo205 [2]: 1.80
- IC50 [2]: 220 nM
- selectivity factor (SF) Colo320 [3]: 3.64
- IC50 [3]: 109 nM
- Behaviour in blood serum diluted by factor 3 [4]: a similar behavior was observed, even though changes were smaller
